Measurements reported in patent US20110263629A1, “AMIDES OF DIAZABICYCLOOCTANES AND USES THEREOF” (Targacept, Inc., priority 2008, published 2011).
Like-named read-outs stand apart in the source and are kept apart here.

Tests used:
rat α4β2 nAChR subtype = target: T1, rat α4β2 nAChR subtype (Rattus norvegicus, UniProt P09483+P12390); assay: Radioligand binding ([3H]nicotine) at rat α4β2 nAChR, rat cortex membranes
T1 construct: Preparation of membranes from rat cortex; from tissue; host or cells: rat cerebral cortex membranes
Experimental: (§1) Preparation of membranes from rat cortex: Rats (female, Sprague-Dawley), weighing 150-250 g, were maintained on a 12 h light/dark cycle and were allowed free access to water and food supplied by PMI Nutrition International, Inc. Animals were anesthetized with 70% CO2, and then decapitated. Brains were removed and placed on an ice-cold platform. The cerebral cortex was removed and placed in 20 volumes (weight:volume) of ice-cold preparative buffer (137 mM NaCl, 10.7 mM KCl, 5.8 mM KH2PO4, 8 mM Na2HPO4, 20 mM HEPES (free acid), 5 mM iodoacetamide, 1.6 mM EDTA, pH 7.4); PMSF, dissolved in methanol to a final concentration of 100 μM, was added and the suspension was homogenized by Polytron. The homogenate was centrifuged at 18,000×g for 20 min at 4° C. and the resulting pellet was re-suspended in 20 volumes of ice-cold water. After 60 min incubation on ice, a new pellet was collected by centrifugation at 18,000×g for 20 min at 4° C. The final pellet was re-suspended in 10 volumes of buffer and stored at −20° C.
(§2) On the day of the assay, the frozen membranes were thawed and spun at 48,000×g for 20 min. The supernatant was decanted and discarded. The pellet was resuspended in Dulbecco's phosphate buffered saline (PBS, Life Technologies) pH 7.4 and homogenized with the Polytron for 6 seconds. Protein concentrations were determined using a Pierce BCA Protein Assay Kit, with bovine serum albumin as the standard (Pierce Chemical Company, Rockford, Ill.).
(§3) Incubation was terminated by rapid filtration on a multi-manifold tissue harvester (Brandel, Gaithersburg, Md.) using GF/B filters presoaked in 0.33% polyethyleneimine (w/v) to reduce non-specific binding. Tissue was rinsed 3 times in PBS, pH 7.4. Scintillation fluid was added to filters containing the washed tissue and allowed to equilibrate. Filters were then counted to determine radioactivity bound to the membranes by liquid scintillation counting (2200CA Tri-Carb LSC, Packard Instruments, 50% efficiency or Wallac Trilux 1450 MicroBeta, 40% efficiency, Perkin Elmer).
(§4) Data were expressed as disintegrations per minute (DPMs). Within each assay, each point had 2-3 replicates. The replicates for each point were averaged and plotted against the log of the drug concentration. IC50, which is the concentration of the compound that produces 50% inhibition of binding, was determined by least squares non-linear regression. Ki values were calculated using the Cheng-Prussof equation (1973): […]

human α4β2 nAChR subtype = target: T2, human α4β2 nAChR subtype (Homo sapiens, UniProt P17787+P43681); assay: Radioligand binding ([3H]nicotine) at human α4β2 nAChR, SH-EP1/human α4β2 clonal cell membranes
T2 construct: expressed in transfected cells; host or cells: SH-EP1 clonal cells expressing human α4β2
Experimental: Preparation of membranes from SH-EP1/human α4β2 clonal cells: Cell pellets from 40 150 mm culture dishes were pooled, and homogenized by Polytron (Kinematica GmbH, Switzerland) in 20 milliliters of ice-cold preparative buffer. The homogenate was centrifuged at 48,000 g for 20 minutes at 4° C. The resulting pellet was re-suspended in 20 mL of ice-cold preparative buffer and stored at −20° C.
as §2, §3, §4

rat α7 nAChR subtype = target: T3, rat α7 nAChR subtype (Rattus norvegicus, UniProt Q05941); assay: Radioligand binding ([3H]MLA) at α7 nAChR, rat hippocampus membranes
T3 construct: Preparation of membranes from rat hippocampus; from tissue; host or cells: rat hippocampus membranes
Experimental: as §1, with “from rat hippocampus: Rats (female,” for “from rat cortex: Rats (female,”, “70% CO2, then decapitated.” for “70% CO2, and then decapitated.”, “platform. The hippocampus was removed” for “platform. The cerebral cortex was removed”, “placed in 10 volumes (weight:volume)” for “placed in 20 volumes (weight:volume)”, “and the tissue suspension was” for “and the suspension was”, “re-suspended in 10 volumes of” for “re-suspended in 20 volumes of”
On the day of the assay, tissue was thawed, centrifuged at 18,000×g for 20 min, and then re-suspended in ice-cold PBS (Dulbecco's Phosphate Buffered Saline, 138 mM NaCl, 2.67 mM KCl, 1.47 mM KH2PO4, 8.1 mM Na2HPO4, 0.9 mM CaCl2, 0.5 mM MgCl2, Invitrogen/Gibco, pH 7.4) to a final concentration of approximately 2 mg protein/mL. Protein was determined by the method of Lowry et al., J. Biol. Chem. 193: 265 (1951), herein incorporated by reference, using bovine serum albumin as the standard.
Assay: The binding of [^3H]MLA was measured using a modification of the methods of Davies et al., Neuropharmacol. 38: 679 (1999), herein incorporated by reference. [^3H]MLA (Specific Activity=25-35 Ci/mmol) was obtained from Tocris. The binding of [^3H]MLA was determined using a 2 h incubation at 21° C. Incubations were conducted in 48-well micro-titre plates and contained about 200 μg of protein per well in a final incubation volume of 300 μL. The incubation buffer was PBS and the final concentration of [^3H]MLA was 5 nM. The binding reaction was terminated by filtration of the protein containing bound ligand onto glass fiber filters (GF/B, Brandel) using a Brandel Tissue Harvester at room temperature. Filters were soaked in de-ionized water containing 0.33% polyethyleneimine to reduce non-specific binding. Each filter was washed with PBS (3×1 mL) at room temperature. Non-specific binding was determined by inclusion of 50 μM non-radioactive MLA in selected wells.
The inhibition of [^3H]MLA binding by test compounds was determined by including seven different concentrations of the test compound in selected wells. Each concentration was replicated in triplicate. IC50 values were estimated as the concentration of compound that inhibited 50 percent of specific [^3H]MLA binding. Inhibition constants (Ki values), reported in nM, were calculated from the IC50 values using the method of Cheng et al., Biochem. Pharmacol. 22: 3099-3108 (1973), herein incorporated by reference.

[1] = rat cortex membranes, 5 nM [3H]nicotine, read-out: Rat α4β2 Ki
[2] = SH-EP1/human α4β2 cell membranes, 5 nM [3H]nicotine, read-out: Human α4β2 Ki
[3] = rat hippocampus membranes, 5 nM [3H]MLA, read-out: Rat α7 Ki

T2 sequence (P43681 29-627 limits assumed): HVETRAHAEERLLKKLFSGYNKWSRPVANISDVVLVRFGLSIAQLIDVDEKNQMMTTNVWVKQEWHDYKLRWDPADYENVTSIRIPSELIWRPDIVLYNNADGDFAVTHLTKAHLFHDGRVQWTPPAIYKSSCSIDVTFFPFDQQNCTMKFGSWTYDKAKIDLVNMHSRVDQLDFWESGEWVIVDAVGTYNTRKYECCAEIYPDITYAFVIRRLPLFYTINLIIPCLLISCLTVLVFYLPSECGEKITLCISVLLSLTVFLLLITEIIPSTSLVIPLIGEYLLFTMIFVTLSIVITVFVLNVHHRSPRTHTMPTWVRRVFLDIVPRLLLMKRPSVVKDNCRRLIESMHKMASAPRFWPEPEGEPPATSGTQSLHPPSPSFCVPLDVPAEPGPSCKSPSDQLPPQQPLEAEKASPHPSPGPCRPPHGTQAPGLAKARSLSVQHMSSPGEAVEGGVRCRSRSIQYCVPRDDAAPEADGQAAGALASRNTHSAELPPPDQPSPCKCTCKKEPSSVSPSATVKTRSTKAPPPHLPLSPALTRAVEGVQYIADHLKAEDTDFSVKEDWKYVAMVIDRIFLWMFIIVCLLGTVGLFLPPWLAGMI
T2 sequence (P17787 26-502): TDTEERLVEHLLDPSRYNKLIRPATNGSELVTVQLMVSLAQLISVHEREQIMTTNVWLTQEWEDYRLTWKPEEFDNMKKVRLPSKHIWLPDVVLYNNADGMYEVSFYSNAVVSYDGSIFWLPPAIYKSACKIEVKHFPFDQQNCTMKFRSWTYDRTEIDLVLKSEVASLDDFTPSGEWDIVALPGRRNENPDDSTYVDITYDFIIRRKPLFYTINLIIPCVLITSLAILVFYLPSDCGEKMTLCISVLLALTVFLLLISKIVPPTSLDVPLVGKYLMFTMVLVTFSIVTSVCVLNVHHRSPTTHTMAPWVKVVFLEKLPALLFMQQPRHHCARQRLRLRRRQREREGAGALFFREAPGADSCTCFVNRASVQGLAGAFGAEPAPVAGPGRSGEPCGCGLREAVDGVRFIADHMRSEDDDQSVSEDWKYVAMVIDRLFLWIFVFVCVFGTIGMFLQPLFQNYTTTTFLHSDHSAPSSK
T3 sequence (Q05941 23-502): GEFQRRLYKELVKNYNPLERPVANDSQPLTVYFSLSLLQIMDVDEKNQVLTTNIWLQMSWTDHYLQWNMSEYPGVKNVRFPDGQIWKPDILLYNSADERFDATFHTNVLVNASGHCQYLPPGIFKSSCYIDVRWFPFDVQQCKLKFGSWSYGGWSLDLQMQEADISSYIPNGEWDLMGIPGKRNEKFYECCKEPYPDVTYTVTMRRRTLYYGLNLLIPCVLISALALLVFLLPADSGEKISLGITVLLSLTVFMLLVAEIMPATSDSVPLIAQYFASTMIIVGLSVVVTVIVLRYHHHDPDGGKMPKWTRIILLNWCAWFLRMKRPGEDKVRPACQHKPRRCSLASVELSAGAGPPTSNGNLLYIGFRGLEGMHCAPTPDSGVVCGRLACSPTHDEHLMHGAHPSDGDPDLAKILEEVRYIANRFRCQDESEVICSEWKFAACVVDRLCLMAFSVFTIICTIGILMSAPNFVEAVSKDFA
T1 sequence (P09483 31-630): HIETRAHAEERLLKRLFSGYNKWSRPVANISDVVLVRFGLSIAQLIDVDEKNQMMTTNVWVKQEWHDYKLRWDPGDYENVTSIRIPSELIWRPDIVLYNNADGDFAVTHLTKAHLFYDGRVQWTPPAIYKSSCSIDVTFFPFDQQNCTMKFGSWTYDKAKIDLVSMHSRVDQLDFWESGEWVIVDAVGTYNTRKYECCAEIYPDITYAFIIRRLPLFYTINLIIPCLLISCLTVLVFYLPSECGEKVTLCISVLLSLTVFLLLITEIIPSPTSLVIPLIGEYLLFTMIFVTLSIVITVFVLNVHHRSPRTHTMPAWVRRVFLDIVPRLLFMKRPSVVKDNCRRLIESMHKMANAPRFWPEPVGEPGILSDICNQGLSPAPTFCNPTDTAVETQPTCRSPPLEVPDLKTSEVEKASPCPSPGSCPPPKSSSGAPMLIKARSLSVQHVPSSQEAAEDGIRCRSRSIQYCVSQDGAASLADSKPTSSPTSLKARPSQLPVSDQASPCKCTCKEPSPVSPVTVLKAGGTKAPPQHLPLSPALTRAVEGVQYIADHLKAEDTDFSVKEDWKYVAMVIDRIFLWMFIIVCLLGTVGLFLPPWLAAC
T1 sequence (P12390 25-500): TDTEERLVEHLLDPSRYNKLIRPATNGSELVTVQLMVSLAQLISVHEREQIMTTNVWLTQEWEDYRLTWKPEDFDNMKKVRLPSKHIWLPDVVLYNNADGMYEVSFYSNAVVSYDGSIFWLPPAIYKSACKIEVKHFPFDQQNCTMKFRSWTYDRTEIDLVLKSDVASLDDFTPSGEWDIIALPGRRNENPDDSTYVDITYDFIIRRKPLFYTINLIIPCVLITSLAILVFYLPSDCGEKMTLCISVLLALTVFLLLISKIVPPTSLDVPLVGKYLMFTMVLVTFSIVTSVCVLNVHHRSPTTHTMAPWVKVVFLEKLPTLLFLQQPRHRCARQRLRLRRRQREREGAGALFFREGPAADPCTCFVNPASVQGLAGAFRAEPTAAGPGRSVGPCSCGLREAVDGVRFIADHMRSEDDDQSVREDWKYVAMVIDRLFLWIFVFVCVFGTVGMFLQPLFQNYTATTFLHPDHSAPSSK

Structure (SMILES)	Ki (rat α4β2 nAChR subtype; read-out: Rat α4β2 Ki)	Ki (human α4β2 nAChR subtype; read-out: Human α4β2 Ki)	other results
O=C(C1CC1)N1C[C@@H]2CN[C@@H](C2)C1	0.014 µM	0.0073 µM	Ki (rat α7 nAChR subtype): 0.098 µM
CC(C)OC(=O)N1C[C@@H]2CN[C@@H](C2)C1			Ki (rat α4β2 nAChR subtype; [1]): 0.97 µM; Ki (human α4β2 nAChR subtype; [2]): 0.56 µM
O=C(C1CCC1)N1C[C@H]2CNC[C@@H]1C2		0.18 µM	Ki (rat α7 nAChR subtype): 1.5 µM
O=C(C1CC1)C1N[C@H]2CNC[C@@H]1C2 (stereo partly drawn)		0.48 µM	Ki (rat α7 nAChR subtype): 1.3 µM
CCCS(=O)(=O)N1C[C@@H]2CN[C@@H](C2)C1		2.8 µM	
O=C(C1CCC1)N1C[C@H]2CN[C@H](C2)C1	0.0022 µM	0.0016 µM	Ki (rat α7 nAChR subtype): 0.44 µM
O=C(CC(F)(F)F)N1C[C@@H]2CN[C@@H](C2)C1		0.073 µM	Ki (rat α4β2 nAChR subtype; [1]): 0.11 µM
CCOC(=O)N1C[C@@H]2CN[C@@H](C2)C1	0.025 µM	0.049 µM	
O=C(C1CC=CC1)N1CC2CNC(C2)C1 (stereo not drawn)	0.011 µM	0.013 µM	Ki (rat α7 nAChR subtype): 0.064 µM
CC(C)S(=O)(=O)N1C[C@@H]2CN[C@@H](C2)C1		0.016 µM	Ki (rat α4β2 nAChR subtype; [1]): 0.75 µM
O=C([C@@H]1C[C@H]1F)N1C[C@H]2CNC[C@@H]1C2		0.23 µM	
C/C=C/CC(=O)N1C[C@@H]2CN[C@@H](C2)C1	0.18 µM	0.22 µM	
CCS(=O)(=O)N1C[C@@H]2CN[C@@H](C2)C1		1.2 µM	
O=C(C1C[C@@H]1F)N1CC2CNC(C2)C1 (stereo partly drawn)	0.022 µM	0.014 µM	Ki (rat α7 nAChR subtype): 0.26 µM
C=CCNC(=S)N1C[C@@H]2CN[C@@H](C2)C1	9.9 µM	> 10 µM	
CC(C)C(=O)N1C[C@@H]2CNC[C@H]1C2		0.59 µM	
COC(=O)N1C[C@@H]2CN[C@@H](C2)C1	0.1 µM		Ki (human α4β2 nAChR subtype; [2]): 0.12 µM
CCC(=O)N1C[C@@H]2CNC[C@H]1C2		0.027 µM	
CN1C[C@H]2C[C@@H]1CN(C(=O)C1CC1)C2	0.019 µM	0.018 µM	
CS(=O)(=O)N1C[C@@H]2CN[C@@H](C2)C1		2.3 µM	
CCCCS(=O)(=O)N1C[C@@H]2CN[C@@H](C2)C1		2.1 µM	
O=C(C1CC1(F)F)N1C[C@@H]2CN[C@@H](C2)C1 (stereo partly drawn)	0.011 µM	0.011 µM	Ki (rat α7 nAChR subtype; [3]): 0.67 µM
C=CCNC(=O)N1C[C@@H]2CN[C@@H](C2)C1	0.13 µM	0.91 µM	
CC(C)CC(=O)N1C[C@@H]2CN[C@@H](C2)C1	0.32 µM	0.35 µM	
CC(C)(C)C(=O)N1C[C@H]2CN[C@H](C2)C1	0.068 µM	0.026 µM	
COC(=O)N1C[C@@H]2CNC[C@H]1C2	0.04 µM	0.086 µM	
COc1ccc(S(=O)(=O)N2C[C@@H]3CN[C@@H](C3)C2)cc1	0.75 µM	0.58 µM	

Structure (SMILES)	Ki (rat α4β2 nAChR subtype; read-out: Rat α4β2 Ki)	Ki (human α4β2 nAChR subtype; read-out: Human α4β2 Ki)	other results
O=C(C1CC1)N1CC2CNCC1C2 (stereo not drawn)	0.0056 µM	0.0034 µM	
CCCCC(=O)N1C[C@@H]2CN[C@@H](C2)C1	0.036 µM	0.077 µM	
CC1(C)C(C(=O)N2CC3CNC(C3)C2)C1(C)C (stereo not drawn)		8.6 µM	
CC(=O)N1C[C@@H]2CNC[C@H]1C2		1.3 µM	
O=C(C1CC12CCC2)N1C[C@@H]2CN[C@@H](C2)C1 (stereo partly drawn)	0.003 µM	0.0023 µM	
COCCOC(=O)N1C[C@@H]2CN[C@@H](C2)C1			Ki (rat α4β2 nAChR subtype; [1]): 1 µM; Ki (human α4β2 nAChR subtype; [2]): 0.58 µM
COC(=O)N1C[C@H]2CN[C@H](C2)C1	0.0048 µM	0.0079 µM	
COCCOC(=O)N1C[C@H]2CN[C@H](C2)C1	0.074 µM		Ki (human α4β2 nAChR subtype; [2]): 0.31 µM
CCCC(=O)N1C[C@@H]2CNC[C@H]1C2		0.034 µM	
COC(=O)N1C[C@H]2CNC[C@@H]1C2			Ki (human α4β2 nAChR subtype; [2]): 5.7 µM
O=C(C1CCOC1)N1C[C@@H]2CN[C@@H](C2)C1 (stereo partly drawn)		0.046 µM	Ki (rat α4β2 nAChR subtype; [1]): 0.14 µM
CCCOC(=O)N1C[C@@H]2CN[C@@H](C2)C1	0.043 µM	0.094 µM	
CC(=O)N1C[C@H]2CN[C@H](C2)C1	0.014 µM	0.034 µM	
CCOC(=O)N1C[C@H]2CNC[C@@H]1C2		1.4 µM	
O=C(Nc1ccc(F)cc1)N1C[C@@H]2CN[C@@H](C2)C1	2.2 µM	> 10 µM	
COC(=O)N1CC2CNC(C2)C1 (stereo not drawn)	0.0068 µM	0.012 µM	
O=C([C@H]1C[C@H]1F)N1C[C@@H]2CNC[C@H]1C2	0.0029 µM	0.0037 µM	
CC(C)C(=O)N1C[C@H]2CNC[C@@H]1C2		0.77 µM	Ki (rat α7 nAChR subtype; [3]): 0.89 µM
O=C(Oc1ccc(F)cc1)N1C[C@H]2CN[C@H](C2)C1			Ki (rat α4β2 nAChR subtype): 0.045 µM; Ki (human α4β2 nAChR subtype): 0.31 µM
O=C(C1CC1)N1C[C@@H]2CNC[C@H]1C2	0.007 µM	0.004 µM	
O=C([C@H]1C[C@@H]1F)N1C[C@@H]2CNC[C@H]1C2		0.011 µM	
CC1(C)CC1C(=O)N1C[C@@H]2CN[C@@H](C2)C1 (stereo partly drawn)	0.049 µM	0.031 µM	
O=C(CCF)N1C[C@H]2CNC[C@@H]1C2		2.4 µM	Ki (rat α7 nAChR subtype; [3]): 2.3 µM
O=C(C1CCC1)N1C[C@@H]2CNC[C@H]1C2		0.023 µM	
CC(C)OC(=O)N1C[C@H]2CN[C@H](C2)C1	0.024 µM	0.044 µM	
CC(=O)N1C[C@@H]2CN[C@@H](C2)C1			Ki (rat α4β2 nAChR subtype; [1]): 0.58 µM; Ki (human α4β2 nAChR subtype; [2]): 0.73 µM
CCNC(=O)N1C[C@@H]2CN[C@@H](C2)C1	0.16 µM	0.56 µM	
